pIC50: −log10 of the molar value. “And” between values parts separate entries of the source, which are not always exact repeats. Equal entries are not always repeated. Inconclusive results are not listed. The source made the active and inactive calls. The rule behind the calls is not given here.
How the values were obtained:
[1] = system: Mycobacterium tuberculosis H37Rv growth inhibition, no glycerol; test: Mycobacterium tuberculosis h37rv growth inhibition in absence of glycerol, confirmatory dose response (AID 588437); conditions: for pIC50: measured here: IC50 growth inhibition replicates
[2] = as above; conditions: Mycobacterium tuberculosis H37Rv growth inhibition, no glycerol

CC1CCCN(C(=O)C2CCC(CNc3c(N4CCCCC4)c(=O)c3=O)CC2)C1 (centres undefined)
pIC50 [1]: 4.19

O=C(C1CCC(CNc2c(N3CCCCC3)c(=O)c2=O)CC1)N1CCCCC1 (centres undefined)
pIC50 [1]: 4.23

O=C(c1ccc(CNc2c(N3CCCC3)c(=O)c2=O)cc1)N1CC=C(c2ccccc2)CC1
pIC50 [1]: 4.90 and 5.09

CCOC(=O)CSc1ncnc2c1cnn2-c1ccc(C)cc1C
IC90 [1]: 7.19 µM
pIC50 [1]: 5.30

COc1ccc(N2CCN(C(=O)c3ccc(CNc4c(N5CCOCC5)c(=O)c4=O)cc3)CC2)cc1
pIC50 [1]: 4.66 and 4.73

CCOc1ccc(NC(=O)c2ccc(CNc3c(N4CCCC4)c(=O)c3=O)cc2)cc1
outcome [2]: inactive

CCC(C)NC(=O)CSc1nc2ccccc2c(=O)[nH]1 (centres undefined)
IC90 [1]: 4.01 µM
pIC50 [1]: 5.53

CC(C)OC(=O)CSc1ncnc2c1cnn2-c1ccccc1
pIC50 [1]: 4.53

O=C(c1ccc(CNc2c(N3CCCC3)c(=O)c2=O)cc1)N1CCc2ccccc2C1
pIC50 [1]: 4.87

Cc1cccc(N2CCN(C(=O)c3ccc(CNc4c(N5CCC(C)CC5)c(=O)c4=O)cc3)CC2C)c1 (centres undefined)
IC90 [1]: 51.8 µM
pIC50 [1]: 4.39

COC(=O)CSc1ncnc2c1cnn2-c1ccc(C)cc1C
IC90 [1]: 6.65 µM
pIC50 [1]: 5.27

CC(=O)c1ccc(NC(=O)c2ccc(CNc3c(N4CCOCC4)c(=O)c3=O)cc2)cc1
pIC50 [1]: < 4.01

O=C(NCCc1ccc(Cl)cc1)c1ccc(CNc2c(N3CCOCC3)c(=O)c2=O)cc1
pIC50 [1]: 4.96 and 4.95

CC1CC(C)CN(C(=O)c2ccc(CNc3c(N4CCCC4)c(=O)c3=O)cc2)C1 (centres undefined)
pIC50 [1]: 4.64

CC1CCN(C(=O)c2ccc(CNc3c(N4CCCC4)c(=O)c3=O)cc2)CC1
pIC50 [1]: 4.69

CC1CC(C)CN(C(=O)C2CCC(CNc3c(N4CCCCC4)c(=O)c3=O)CC2)C1 (centres undefined)
pIC50 [1]: 4.57 and 4.45

O=C(NCCc1ccc(Cl)cc1)C1CCC(CNc2c(N3CCCCC3)c(=O)c2=O)CC1 (centres undefined)
pIC50 [1]: 4.65

CC1CCCN(C(=O)c2ccc(CNc3c(N4CCCCC4)c(=O)c3=O)cc2)C1 (centres undefined)
pIC50 [1]: 4.85

O=C(c1ccc(CNc2c(N3CCOCC3)c(=O)c2=O)cc1)N1CC=C(c2ccccc2)CC1
IC90 [1]: 15.4 µM
pIC50 [1]: 5.32

CCOC(=O)CSc1ncnc2c1cnn2-c1ccccc1
IC90 [1]: 47.7 µM
pIC50 [1]: 4.52

Cc1cccc(N2CCN(C(=O)c3ccc(CNc4c(N5CCC(C)CC5)c(=O)c4=O)cc3)CC2)c1C
outcome [2]: inactive

CCOC(=O)N1CCC(Nc2c(Nc3cccc(CC)c3)c(=O)c2=O)CC1
IC90 [1]: 85.3 µM
pIC50 [1]: 4.19

Source: PubChem BioAssay AID588437 (Southern Research Specialized Biocontainment Screening …, 2011)
